Consider 22 compounds from patent US11918582B2 (RAPT Therapeutics, Inc., priority 2021, dated 2024).

Counter-ions that a name gives are not always drawn.

The assay concerns the target T1, human HPK1 (MAP4K1) (Homo sapiens, UniProt Q92918).
T1 construct: Recombinant human HPK1 kinase domain was obtained from ThermoFisher (Cat. #PV6357) and SignalChem (Cat. #M23-11G); purchased ThermoFisher; SignalChem PV6357; M23-11G
T1 sequence (Q92918 17-274 limits assumed): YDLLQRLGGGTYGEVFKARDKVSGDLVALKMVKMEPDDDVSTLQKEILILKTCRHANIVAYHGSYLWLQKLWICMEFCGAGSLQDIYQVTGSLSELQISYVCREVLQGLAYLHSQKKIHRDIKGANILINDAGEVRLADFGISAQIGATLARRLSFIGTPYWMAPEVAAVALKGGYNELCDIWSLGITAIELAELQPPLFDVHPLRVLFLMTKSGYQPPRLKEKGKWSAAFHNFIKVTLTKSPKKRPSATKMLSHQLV
Briefly: Biochemical assay for activity against HPK1 (ADP-Glo, MBP substrate). The conditions noted are these: recombinant human HPK1 kinase domain, 1 nM enzyme, ADP-Glo luminescence. From the text: These compounds are made by the synthetic methods described earlier herein. Example 227 Biochemical Assay for Testing Compounds for Activity against HPK1
The enzymatic activity of human HPK1 (MAP4K1) was monitored in a biochemical assay in the presence or absence of compounds, using a peptide substrate (myelin basic protein, MBP), with an ADP-Glo assay kit (Promega, Cat. #V9103). An increase in phosphorylation of the peptide by HPK1 was indicative of its kinase activity.
Recombinant human HPK1 kinase domain was obtained from ThermoFisher (Cat. #PV6357) and SignalChem (Cat. #M23-11G). A 1 nM HPK1 kinase enzyme solution was prepared from the HPK1 stock received from the commercial supplier using an assay buffer containing 50 mM HEPES (4-(2-hydroxyethyl)-1-piperazineethanesulfonic acid) pH 7.5 (Fisher Scientific, Cat. #H1035), 150 mM NaCl (Fisher Scientific, Cat. #50843067), 3 mM TCEP-HCl (Tris(2-carboxyethyl)phosphine hydrochloride; Fisher Scientific, Cat. #PIPG82080), 10 mM MgCl2 (Fisher Scientific, Cat. #AM9530G), 0.005% Tween-20 (Fisher Scientific, Cat. #BP337500) and 0.01% BSA (bovine serum albumin; ThermoFisher, Cat. #15260037), in ultra-pure water. The final concentration of the assay buffer was 770 nM. A 5 mM stock solution of the peptide substrate was prepared using […] MBP (Myelin Basic Protein, Active Motif, Cat. #31314), 10 mM ATP (adenosine 5′-triphosphate; Sigma-Aldrich, Cat. #GE27-2056-01) and of assay buffer.
Test compounds were dissolved in DMSO (dimethyl sulfoxide) at 10 mM and then serial dilutions were prepared using a ViaFlow assist multichannel dispenser (Integra ViaFlo). 20 nL of test compounds at various concentrations were dispensed into a 1536-well assay plate (Corning Cat. #7247) using an Echo Nanoliter dispenser (Labcyte ECHO 550). […] of a 1 nM solution of HPK1 kinase enzyme diluted in assay buffer was added to the compound-containing plate using a Mantis Microliter dispenser (Formulatrix Mantis), covered with a lid, and incubated for 15 minutes at room temperature. 50 nL of a 5 mM stock solution of the peptide substrate (MBP) were added using the Echo Nanoliter dispenser. The plate was covered with a lid, centrifugated at 500 rpm for 1 minute and incubated for 2 hours at room temperature. […] of ADP-Glo reagent A was added using the Mantis Microliter dispenser, centrifugated at 500 rpm for 30 seconds and incubated for 40 minutes at room temperature. […] of ADP-Glo reagent B was added using the Mantis Microliter dispenser, centrifugated at 500 rpm for 30 seconds and incubated for 30 minutes at room temperature. Peptide phosphorylation was measured by luminescence on an Envision plate reader (PerkinElmer).
The HPK1 biochemical IC50 activity levels of the compounds of Examples 1-225 were tested using this assay and are shown in Table 2.
By IC50 is commonly meant the point on the concentration scale where inhibition reaches its midpoint. For the compound `COc1cc2c(cc1Nc1ncc3cnn([C@H]4CC[C@H](C(N)=O)CC4)c3n1)CN(C)CC2` [Example 38, (1r,4r)-4-(6-((6-methoxy-2-methyl-1,2,3,4-tetrahydroisoquinolin-7-yl)amino)-1H-pyrazolo[3,4-d]pyrimidin-1-yl)cyclohexane-1-carboxamide], the IC50 is < 100 nM.
Turning to `COc1cc2c(cc1Nc1ncc3cnn(C[C@@H]4CCN4C(C)=O)c3n1)CN(C)CC2` [Example 133, (S)-1-(2-((6-((6-methoxy-2-methyl-1,2,3,4-tetrahydroisoquinolin-7-yl)amino)-1H-pyrazolo[3,4-d]pyrimidin-1-yl)methyl)azetidin-1-yl)ethan-1-one], the IC50 is 100 to 250 nM.
Turning to `COc1cc2c(cc1Nc1ncc3cnn([C@H]4C[C@H](CNS(C)(=O)=O)C4)c3n1)CN(C)CC2` [Example 121, N-((trans-3-(6-((6-methoxy-2-methyl-1,2,3,4-tetrahydroisoquinolin-7-yl)amino)-1H-pyrazolo[3,4-d]pyrimidin-1-yl)cyclobutyl)methyl)methanesulfonamide trifluoroacetate], the half-maximal inhibitory concentration (IC50) was < 100 nM.
For the compound `COc1cc2c(cc1Nc1ncc3cnn(C[C@@H]4CCCN(C(C)=O)C4)c3n1)CN(C)CC2` [Example 140, 1-[(3R)-3-[[6-[(6-methoxy-2-methyl-3,4-dihydro-1H-isoquinolin-7-yl)amino]pyrazolo[3,4-d]pyrimidin-1-yl]methyl]-1-piperidyl]ethan-1-one], the IC50 is < 100 nM.
Turning to `COc1cc2c(cc1Nc1ncc3cnn(C[C@@H]4CC[C@H](C)N4C(C)=O)c3n1)CN(C)CC2` [Example 171, 1-[(2S,5S)-2-[[6-[(6-methoxy-2-methyl-3,4-dihydro-1H-isoquinolin-7-yl)amino]pyrazolo[3,4-d]pyrimidin-1-yl]methyl]-5-methyl-pyrrolidin-1-yl]ethanone], the IC50 was < 100 nM.
As for `COc1cc2c(cc1Nc1ncc3cnn(CC[C@H](C)O)c3n1)CN(C)CC2` [Example 84, (S)-4-(6-((6-methoxy-2-methyl-1,2,3,4-tetrahydroisoquinolin-7-yl)amino)-1H-pyrazolo[3,4-d]pyrimidin-1-yl)butan-2-ol], the half-inhibitory concentration (IC50) is < 100 nM.
With `COc1cc2c(cc1Nc1ncc3cnn(C[C@@H]4C[C@@H](O)CN4C(C)=O)c3n1)CN(C)CC2` [Example 130, 1-((2S,4R)-4-hydroxy-2-((6-((6-methoxy-2-methyl-1,2,3,4-tetrahydroisoquinolin-7-yl)amino)-1H-pyrazolo[3,4-d]pyrimidin-1-yl)methyl)pyrrolidin-1-yl)ethan-1-one trifluoroacetate], the concentration for half-maximal inhibition (IC50) is < 100 nM.
`COc1cc2c(cc1Nc1ncc3cnn(C[C@@H]4[C@@H](C)[C@H](F)CN4C(C)=O)c3n1)CN(C)CC2` [Example 191, 1-((2S,3R,4S)-4-fluoro-2-((6-((6-methoxy-2-methyl-1,2,3,4-tetrahydroisoquinolin-7-yl)amino)-1H-pyrazolo[3,4-d]pyrimidin-1-yl)methyl)-3-methylpyrrolidin-1-yl)ethan-1-one]: the IC50 is < 100 nM.
For `COc1cc2c(cc1Nc1ncc3cnn(C[C@@H]4CCC[C@H]4CO)c3n1)CN(C)CC2` (racemic) [Example 160, Rac-trans-2-[[6-[(6-methoxy-2-methyl-3,4-dihydro-1H-isoquinolin-7-yl)amino]pyrazolo[3,4-d]pyrimidin-1-yl]methyl]cyclopentyl]methanol], the 50% inhibitory concentration (IC50) is < 100 nM.
As for `COC(=O)NCCn1ncc2cnc(Nc3cc4c(cc3OC)CCN(C)C4)nc21` [Example 89, methyl N-[2-[6-[(6-methoxy-2-methyl-3,4-dihydro-1H-isoquinolin-7-yl)amino]pyrazolo[3,4-d]pyrimidin-1-yl]ethyl]carbamate], the IC50 lay within 100 to 250 nM.
Regarding `COc1cc2c(cc1Nc1ncc3cnn([C@H]4C[C@H](CNC(C)=O)C4)c3n1)CN(C)CC2` [Example 122, N-((trans-3-(6-((6-methoxy-2-methyl-1,2,3,4-tetrahydroisoquinolin-7-yl)amino)-1H-pyrazolo[3,4-d]pyrimidin-1-yl)cyclobutyl)methyl)acetamide 2,2,2-trifluoroacetate], the 50% inhibitory concentration (IC50) is < 100 nM.
`COc1cc2c(cc1Nc1ncc3cnn(C[C@@H]4CCCN4C(N)=O)c3n1)CN(C)CC2` [Example 217, (2S)-2-[[6-[(6-methoxy-2-methyl-3,4-dihydro-1H-isoquinolin-7-yl)amino]pyrazolo[3,4-d]pyrimidin-1-yl]methyl]pyrrolidine-1-carboxamide]: the IC50 was < 100 nM.
As for `COC(=O)N[C@H]1CC[C@H](n2ncc3cnc(Nc4cc5c(cc4OC)CCN(C)C5)nc32)CC1` [Example 80, trans-methyl N-[4-[6-[(6-methoxy-2-methyl-3,4-dihydro-1H-isoquinolin-7-yl)amino]pyrazolo[3,4-d]pyrimidin-1-yl]cyclohexyl]carbamate], the half-inhibitory concentration (IC50) was < 100 nM.
Take `COc1cc2c(cc1Nc1ncc3cnn(C[C@H]4C[C@H]4C)c3n1)CN(C)CC2` (racemic) [Example 202, 6-methoxy-2-methyl-N-(1-((cis-2-methylcyclopropyl)methyl)-1H-pyrazolo[3,4-d]pyrimidin-6-yl)-1,2,3,4-tetrahydroisoquinolin-7-amine, Trifluoroacetate Salt]: the half-maximal inhibitory concentration (IC50) was < 100 nM.
Consider `COc1cc2c(cc1Nc1ncc3cnn(C[C@@H]4CC[C@@H](C)N4C(C)=O)c3n1)CN(C)CC2` [Example 174], for which the IC50 was < 100 nM.
With `COc1cc2c(cc1Nc1ncc3c(C)nn([C@H]4CC[C@H](CO)CC4)c3n1)CN(C)CC2` [Example 68, trans-[4-[6-[(6-methoxy-2-methyl-3,4-dihydro-1H-isoquinolin-7-yl)amino]-3-methyl-pyrazolo[3,4-d]pyrimidin-1-yl]cyclohexyl]methanol], the IC50 was < 100 nM.
Consider `CCOC(=O)[C@@H]1CCC[C@H](n2ncc3cnc(Nc4cc5c(cc4OC)CCN(C)C5)nc32)C1` (relative stereo) [Example 21, ethyl cis-3-(6-((6-methoxy-2-methyl-1,2,3,4-tetrahydroisoquinolin-7-yl)amino)-1H-pyrazolo[3,4-d]pyrimidin-1-yl)cyclohexane-1-carboxylate], for which the IC50 was < 100 nM.
Next, `CN1CCc2ccc(Nc3ncc4cnn(C5CCCCC5)c4n3)cc2C1` [Example 102, N-(1-cyclohexyl-1H-pyrazolo[3,4-d]pyrimidin-6-yl)-2-methyl-1,2,3,4-tetrahydroisoquinolin-7-amine]: < 100 nM; `COc1nc2c(cc1Nc1ncc3cnn([C@@H]4CCC[C@@H](C(N)=O)C4)c3n1)CN(C)CC2` [Example 181, (1R,3R)-3-(6-((2-methoxy-6-methyl-5,6,7,8-tetrahydro-1,6-naphthyridin-3-yl)amino)-1H-pyrazolo[3,4-d]pyrimidin-1-yl)cyclohexane-1-carboxamide Mesylate]: < 100 nM; `CN1CCc2ccc(Nc3ncc4cnn([C@H]5CCCNC5)c4n3)cc2C1` [Example 17, (S)-2-methyl-N-(1-(piperidin-3-yl)-1H-pyrazolo[3,4-d]pyrimidin-6-yl)-1,2,3,4-tetrahydroisoquinolin-7-amine hydrochloride]: < 100 nM.
`COc1cc2c(cc1Nc1ncc3cnn(C4CCC(CO)CC4)c3n1)CN(C)CC2` (stereo in doubt) [Example 64, cis-[4-[6-[(6-methoxy-2-methyl-3,4-dihydro-1H-isoquinolin-7-yl)amino]pyrazolo[3,4-d]pyrimidin-1-yl]cyclohexyl]methanol]: the IC50 was < 100 nM.
On to `COc1cc2c(cc1Nc1ncc3cnn(C[C@@H]4[C@@H]5C[C@@H]5CN4C(C)=O)c3n1)CN(C)CC2` [Example 137, 1-((1R,2S,5S)-2-((6-((6-methoxy-2-methyl-1,2,3,4-tetrahydroisoquinolin-7-yl)amino)-1H-pyrazolo[3,4-d]pyrimidin-1-yl)methyl)-3-azabicyclo[3.1.0]hexan-3-yl)ethan-1-one], for which the IC50 is < 100 nM.
